Literature values, collected in patent US20140328945A1, “METHOD FOR STABILIZING AN ELECTROCHEMICALLY GENERATED SANITIZING SOLUTION HAVING A PREDETERMINED LEVEL OF FREE AVAILABLE CHLORINE AND pH” (Aquaxo, Inc., priority 2013, published 2014).

How the values were obtained:
[1] = system: S. typhosa
[2] = system: A. aerogenes
[3] = system: E. coli
[4] = system: E. coli; details: 2.6 ppm, dilute bacterial suspensions, in about 5 minutes
[5] = system: S. clysvnteriae
[6] = system: Escherichia coli; details: E. coli exposed to Hypochlorous Acid

OCl [Hypochlorous Acid]
concentration required for 100% kill in 5 minutes [1]: 0.06 ppm
concentration required for 100% kill in 5 minutes [2]: 0.08 ppm
concentration required for 100% kill in 5 minutes [3]: 0.03 ppm
growth inhibition [4]: 100%
concentration required for 100% kill in 5 minutes [5]: 0.05 ppm
time to lose viability [6]: less than 100 ms
